Data published in patent US11345676B2, “Apoptosis signal-regulating kinase 1 (ASK 1) inhibitor compounds” (PHARMAKEA, INC., priority 2017, dated 2022).
Counter-ions that a name gives are not always drawn.

Molecular target: ASK1 (Homo sapiens (Human), UniProt Q99683)
Assay: Human ASK1 ADP-Glo kinase assay
Format: biochemical
Conditions: recombinant ASK1 (amino acids 649-946), 50 μM ATP, MBP substrate
Experimental: Example B-1: Human ASK1 ADP-Glo Assay
The ability of test compounds to inhibit ASK1 kinase activity was determined using the luminescent ADP-Glo™ Kinase Assay and Myelin Basic Protein (MBP) as a substrate (Promega Corporation, Madison, Wis.). During the kinase reaction, ASK1 utilizes ATP and generates ADP. The remaining ATP is then depleted by addition of the ADP-Glo™ reagent which also terminates the reaction. Subsequent addition of the Kinase Detection Reagent converts the ADP that was produced during the kinase reaction to ATP, and this newly synthesized ATP is converted to light using the luciferase/luciferin reactions. The assay was performed according to the manufacturer's instructions. Briefly, purified, recombinant ASK1 (amino acids 649-946) (10-20 ng/well) was added to a 384-well, F bottom, small volume, HIbase, white plate (Greiner Bio-One, Monroe, N.C. #784075) containing 1-2 μL 5× test compound or vehicle control (diluted 1:20 from a 100% DMSO stock solution into 1× Reaction Buffer A). The enzyme was allowed to pre-incubate with test compound from 15-120 min at 30° C. before the addition of the ATP/substrate mix (final concentrations of 50 μM ATP+250 ng MBP in 1× Reaction Buffer A). The mixture was then incubated at room temperature for 40 min before the addition of ADP-Glo™ reagent and a second 40 minute room temperature incubation. Following the addition of the Kinase Detection Reagent, the plate was incubated for an additional 40 min at room temperature before reading luminescence on a FlexStation 3 (Molecular Devices, Sunnyvale, Calif.). Maximum activity was determined from wells treated with vehicle and was set to 100% and minimum activity was determined from wells containing no enzyme and this was set to 0%. Percent inhibition was calculated relative to the controls and the data graphed in Collaborative Drug Discovery (CDD) Vault (Burlingame, Calif.).

Chain of ASK1 (Q99683 649-946): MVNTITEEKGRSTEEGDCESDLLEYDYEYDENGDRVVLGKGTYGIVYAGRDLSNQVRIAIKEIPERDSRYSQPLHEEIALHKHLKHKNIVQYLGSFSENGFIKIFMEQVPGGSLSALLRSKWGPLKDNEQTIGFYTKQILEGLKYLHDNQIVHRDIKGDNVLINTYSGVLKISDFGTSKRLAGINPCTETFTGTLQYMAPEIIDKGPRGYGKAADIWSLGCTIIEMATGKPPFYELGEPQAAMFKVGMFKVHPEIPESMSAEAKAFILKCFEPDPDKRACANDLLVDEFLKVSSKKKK

IC50 | SMILES
< 300 nM | CC(C)n1cnnc1-c1cccc(NC(=O)c2cccc(Oc3cc(C#N)cc(C(F)(F)F)n3)c2)n1 [Compound 1-23, 3-((4-Cyano-6-(trifluoromethyl)pyridin-2-yl)oxy)-N-(6-(4-isopropyl-4H-1,2,4-triazol-3-yl)pyridin-2-yl)benzamide]
300 to 1000 nM | CC(C)n1cnnc1-c1cccc(NC(=O)c2cccc(Oc3cc(C(=O)O)cc(C(F)(F)F)n3)c2)n1 [Compound 1-24, 2-(3-((6-(4-Isopropyl-4H-1,2,4-triazol-3-yl)pyridin-2-yl)carbamoyl)phenoxy)-6-(trifluoromethyl)isonicotinic acid trifluoroacetate]
< 300 nM | CC(C)n1cnnc1-c1cccc(NC(=O)c2cccc(OCc3ccccc3)c2)n1 [Compound 1-179, 3-(Benzyloxy)-N-(6-(4-isopropyl-4H-1,2,4-triazol-3-yl)pyridin-2-yl)benzamide]
< 300 nM | CC(C)n1cnnc1-c1cccc(NC(=O)c2cccc(OCc3cccnc3)c2)n1 [Compound 1-181, N-(6-(4-Isopropyl-4H-1,2,4-triazol-3-yl)pyridin-2-yl)-3-(pyridin-3-ylmethoxy)benzamide hydrochloride]
< 300 nM | CC(C)n1cnnc1-c1cccc(NC(=O)c2cc(Oc3ccccn3)ccc2F)n1 [Compound 1-210, 2-Fluoro-N-(6-(4-isopropyl-4H-1,2,4-triazol-3-yl)pyridin-2-yl)-5-(pyridin-2-yloxy)benzamide hydrochloride]
< 300 nM | CC(C)n1cnnc1-c1cccc(NC(=O)c2cc(Oc3cccnc3)ccc2F)n1 [Compound 1-211, 2-Fluoro-N-(6-(4-isopropyl-4H-1,2,4-triazol-3-yl)pyridin-2-yl)-5-(pyridin-3-yloxy)benzamide hydrochloride]
< 300 nM | CC(C)n1cnnc1-c1cccc(NC(=O)c2cc(Oc3cccc(C4CC4)n3)ccc2F)n1 [Compound 1-213, 5-((6-Cyclopropylpyridin-2-yl)oxy)-2-fluoro-N-(6-(4-isopropyl-4H-1,2,4-triazol-3-yl)pyridin-2-yl)benzamide trifluoroacetate]
< 300 nM | CC(C)n1cnnc1-c1cccc(NC(=O)c2cc(Oc3ccncn3)ccc2F)n1 [Compound 1-217, 2-Fluoro-N-(6-(4-isopropyl-4H-1,2,4-triazol-3-yl)pyridin-2-yl)-5-(pyrimidin-4-yloxy)benzamide hydrochloride]
< 300 nM | CC(C)n1cnnc1-c1cccc(NC(=O)c2cc(Oc3cccc(C(F)(F)F)n3)ccc2F)c1 [Compound 1-223, 2-Fluoro-N-(3-(4-isopropyl-4H-1,2,4-triazol-3-yl)phenyl)-5-((6-(trifluoromethyl)pyridin-2-yl)oxy)benzamide hydrochloride]
300 to 1000 nM | CC(C)n1cnnc1-c1cccc(NC(=O)c2cc(Oc3cccc(N4CCCC4)n3)ccc2F)n1 [Compound 1-225, 2-Fluoro-N-(6-(4-isopropyl-4H-1,2,4-triazol-3-yl)pyridin-2-yl)-5-((6-(pyrrolidin-1-yl)pyridin-2-yl)oxy)benzamide hydrochloride]
< 300 nM | CC(C)n1cnnc1-c1cccc(NC(=O)c2cc(Oc3ccc(C4CC4)cn3)ccc2F)n1 [Compound 1-227, 5-((5-Cyclopropylpyridin-2-yl)oxy)-2-fluoro-N-(6-(4-isopropyl-4H-1,2,4-triazol-3-yl)pyridin-2-yl)benzamide hydrochloride]
< 300 nM | CC(C)n1cnnc1-c1cccc(NC(=O)c2cc(NC(=O)c3ccccn3)ccc2F)n1 [Compound 1-307, N-(4-Fluoro-3-((6-(4-isopropyl-4H-1,2,4-triazol-3-yl)pyridin-2-yl)carbamoyl)phenyl)picolinamide hydrochloride]
< 300 nM | CC(C)n1cnnc1-c1cccc(NC(=O)c2cc(NC(=O)c3cccnc3)ccc2F)n1 [Compound 1-308, N-(4-Fluoro-3-((6-(4-isopropyl-4H-1,2,4-triazol-3-yl)pyridin-2-yl)carbamoyl)phenyl)nicotinamide hydrochloride]
< 300 nM | CC(C)n1cnnc1-c1cccc(NC(=O)c2cc(NC(=O)c3ccncc3)ccc2F)n1 [Compound 1-309, N-(4-Fluoro-3-((6-(4-isopropyl-4H-1,2,4-triazol-3-yl)pyridin-2-yl)carbamoyl)phenyl)isonicotinamide dihydrochloride]
< 300 nM | CC(C)n1cnnc1-c1cccc(NC(=O)c2cc(NC(=O)c3ccc(Br)cn3)ccc2F)n1 [Compound 1-311, 5-Bromo-N-(4-fluoro-3-((6-(4-isopropyl-4H-1,2,4-triazol-3-yl)pyridin-2-yl)carbamoyl)phenyl)picolinamide hydrochloride]
< 300 nM | CC(C)n1cnnc1-c1cccc(NC(=O)c2cc(NC(=O)c3cncnc3)ccc2F)n1 [Compound 1-313, N-(4-Fluoro-3-((6-(4-isopropyl-4H-1,2,4-triazol-3-yl)pyridin-2-yl)carbamoyl)phenyl)pyrimidine-5-carboxamide hydrochloride]
< 300 nM | CC(C)n1cnnc1-c1cccc(NC(=O)c2cc(NC(=O)c3ncccn3)ccc2F)n1 [Compound 1-314, N-(4-Fluoro-3-((6-(4-isopropyl-4H-1,2,4-triazol-3-yl)pyridin-2-yl)carbamoyl)phenyl)pyrimidine-2-carboxamide trifluoroacetate]
300 to 1000 nM | CC(C)(C)OC(=O)NCc1cc(Oc2ccnc(C(=O)Nc3cccc(-c4nncn4C4CC4)n3)c2)nc(C(F)(F)F)c1 [Compound 1-329, tert-Butyl ((2-((2-((6-(4-cyclopropyl-4H-1,2,4-triazol-3-yl)pyridin-2-yl)carbamoyl)pyridin-4-yl)oxy)-6-(trifluoromethyl)pyridin-4-yl)methyl)carbamate]
< 300 nM | CC(C)n1cnnc1-c1cccc(NC(=O)c2cc(NC(=O)c3cc(CN)ccn3)ccc2F)n1 [Compound 1-332, 4-(Aminomethyl)-N-(4-fluoro-3-((6-(4-isopropyl-4H-1,2,4-triazol-3-yl)pyridin-2-yl)carbamoyl)phenyl)picolinamide hydrochloride]
< 300 nM | CC(C)n1cnnc1-c1cccc(NC(=O)c2cc(NC(=O)Cc3ccccc3)ccc2F)n1 [Compound 1-333, 2-Fluoro-N-(6-(4-isopropyl-4H-1,2,4-triazol-3-yl)pyridin-2-yl)-5-(2-phenylacetamido)benzamide trifluoroacetate]
< 300 nM | CC(C)n1cnnc1-c1cccc(NC(=O)c2cc(NC(=O)c3ccc(F)c(F)c3)ccc2F)n1 [Compound 1-334, 5-(3,4-Difluorobenzamido)-2-fluoro-N-(6-(4-isopropyl-4H-1,2,4-triazol-3-yl)pyridin-2-yl)benzamide hydrochloride]
< 300 nM | CC(C)n1cnnc1-c1cccc(NC(=O)c2cc(NC(=O)c3ccc(C(=O)O)cc3)ccc2F)n1 [Compound 1-335, 4-((4-Fluoro-3-((6-(4-isopropyl-4H-1,2,4-triazol-3-yl)pyridin-2-yl)carbamoyl)phenyl)carbamoyl)benzoic acid sodium salt]
< 300 nM | CC(C)n1cnnc1-c1cccc(NC(=O)c2cc(Oc3cccc(Br)n3)ccc2F)n1 [Compound 1-336, 5-((6-Bromopyridin-2-yl)oxy)-2-fluoro-N-(6-(4-isopropyl-4H-1,2,4-triazol-3-yl)pyridin-2-yl)benzamide hydrochloride]
300 to 1000 nM | CC(C)n1cnnc1-c1cccc(NC(=O)c2cc(Oc3ccc(Br)cn3)ccc2F)n1 [Compound 1-337, 5-((5-Bromopyridin-2-yl)oxy)-2-fluoro-N-(6-(4-isopropyl-4H-1,2,4-triazol-3-yl)pyridin-2-yl)benzamide hydrochloride]
< 300 nM | O=C(Nc1ccc(F)c(C(=O)Nc2cccc(-c3nncn3C(CF)CF)n2)c1)c1ccccc1 [Compound 1-340, 5-Benzamido-N-(6-(4-(1,3-difluoropropan-2-yl)-4H-1,2,4-triazol-3-yl)pyridin-2-yl)-2-fluorobenzamide hydrochloride]
< 300 nM | C[C@H](CO)n1cnnc1-c1cccc(NC(=O)c2cc(NC(=O)c3ccccc3)ccc2F)n1 [Compound 1-341, (R)-5-Benzamido-2-fluoro-N-(6-(4-(1-hydroxypropan-2-yl)-4H-1,2,4-triazol-3-yl)pyridin-2-yl)benzamide]
300 to 1000 nM | C[C@H](CO)n1cnnc1-c1cccc(NC(=O)c2cc(Nc3ccc(F)cc3)ccc2F)n1 [Compound 1-342, (R)-2-Fluoro-5-((4-fluorophenyl)amino)-N-(6-(4-(1-hydroxypropan-2-yl)-4H-1,2,4-triazol-3-yl)pyridin-2-yl)benzamide]
< 300 nM | C[C@H](CO)n1cnnc1-c1cccc(NC(=O)c2cc(NCc3ccc(F)cc3)ccc2F)n1 [Compound 1-343, (R)-2-Fluoro-5-((4-fluorobenzyl)amino)-N-(6-(4-(1-hydroxypropan-2-yl)-4H-1,2,4-triazol-3-yl)pyridin-2-yl)benzamide hydrochloride]

SMILES | IC50
CC(C)n1cnnc1-c1cccc(NC(=O)c2cc(NC(=O)c3ccccc3)ccc2F)n1 [Compound 1-305, 5-Benzamido-2-fluoro-N-(6-(4-isopropyl-4H-1,2,4-triazol-3-yl)pyridin-2-yl) benzamide hydrochloride] | < 300 nM
